Tests used:
crabgrass = test: Test B pre/postemergence crabgrass; type: in vivo, Digitaria sanguinalis; details: for Crabgrass plant response rating: Postemergence; for Plant response rating, Crabgrass: Preemergence
Outline: (§1)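 Response is a visual 0-to-10 score relative to untreated plants, where 0 means no effect and 10 means complete control, taken twelve to sixteen days after application. Treatments went onto soil at planting and onto foliage of 1- to 4-leaf plants, using a surfactant-containing non-phytotoxic solvent.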

wheat = test: Test B pre/postemergence wheat; type: in vivo, Triticum aestivum; details: for Wheat plant response rating: Postemergence; for Plant response rating, Wheat: Preemergence
Outline: as §1

blackgrass = test: Test B pre/postemergence blackgrass; type: in vivo, Alopecurus myosuroides; details: for Blackgrass plant response rating: Postemergence; for Plant response rating, Blackgrass: Preemergence
Outline: as §1

smallflower flatsedge = test: Test B flood test smallflower flatsedge; type: in vivo, Cyperus difformis
Outline: (§2)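 Plants were grown to the 2-leaf stage before treatment with test chemical, then held in a greenhouse for twelve to sixteen days. Injury was visually rated against untreated controls on a 0–10 scale, where 0 is no effect and 10 is complete control.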

soybean = test: Test B pre/postemergence soybean; type: in vivo, Glycine max; details: for Soybean plant response rating: Postemergence; for Plant response rating, Soybean: Preemergence
Outline: as §1

rice = test: Test B flood test rice; type: in vivo, Oryza sativa
Outline: as §2

rape = test: Test B pre/postemergence rape; type: in vivo, Brassica napus; details: for Rape plant response rating: Postemergence; for Plant response rating, Rape: Preemergence
Outline: as §1

morningglory = test: Test B pre/postemergence morningglory; type: in vivo, Ipomoea hederacea; details: for Morningglory plant response rating: Postemergence; for Plant response rating, Morningglory: Preemergence
Outline: as §1

giant foxtail = test: Test B pre/postemergence giant foxtail; type: in vivo, Setaria faberii; details: for Giant foxtail plant response rating: Postemergence; for Plant response rating, Giant foxtail: Preemergence
Outline: as §1

wild oat = test: Test B pre/postemergence wild oat; type: in vivo, Avena fatua; details: for Wild oats plant response rating: Postemergence; for Plant response rating, Wild oats: Preemergence
Outline: as §1

surinam grass = test: Test B pre/postemergence surinam grass; type: in vivo, Brachiaria decumbens; details: for B. signalgrass plant response rating: Postemergence; for Plant response rating, B. signalgrass: Preemergence
Outline: as §1

corn = test: Test B pre/postemergence corn; type: in vivo, Zea mays; details: for Corn plant response rating: Postemergence; for Plant response rating, Corn: Preemergence
Outline: as §1

bedstraw = test: Test B pre/postemergence bedstraw; type: in vivo, Galium aparine; details: Postemergence, Rate 1000 g/ha; scale 0 to 10 (0 no effect, 10 complete control)
Outline: as §1

sugar beet = test: Test B pre/postemergence sugar beet; type: in vivo, Beta vulgaris; details: for Sugarbeets plant response rating: Postemergence; for Plant response rating, Sugarbeets: Preemergence
Outline: as §1

purple nutsedge = test: Test B pre/postemergence purple nutsedge; type: in vivo, Cyperus rotundus; details: for Nutsedge plant response rating: Postemergence; for Plant response rating, Nutsedge: Preemergence
Outline: as §1

pigweed = test: Test B pre/postemergence pigweed; type: in vivo, Amaranthus retroflexus; details: for Redroot pigweed plant response rating: Postemergence; for Plant response rating, Redroot pigweed: Preemergence
Outline: as §1

cocklebur = test: Test B pre/postemergence cocklebur; type: in vivo, Xanthium strumarium; details: for Cocklebur plant response rating: Postemergence; for Plant response rating, Cocklebur: Preemergence
Outline: as §1

velvetleaf = test: Test B pre/postemergence velvetleaf; type: in vivo, Abutilon theophrasti; details: for Velvetleaf plant response rating: Postemergence; for Plant response rating, Velvetleaf: Preemergence
Outline: as §1

duck salad = test: Test B flood test duck salad; type: in vivo, Heteranthera limosa
Outline: as §2

bamyardgrass = test: Test B flood test barnyardgrass; type: in vivo, Echinochloa crus-galli
Outline: as §2

[1] = Rate 125 g/ha, scale of 0 to 10 where 0 is no effect and 10 is complete control
[2] = Rate 1000 g/ha, scale 0 to 10 (0 no effect, 10 complete control)
[3] = Rate 250 g/ha, scale 0 to 10 (0 no effect, 10 complete control)
[4] = Rate 500 g/ha, scale of 0 to 10 where 0 is no effect and 10 is complete control
[5] = Rate 250 g/ha, scale 0 to 10, 0 is no effect, 10 is complete control
[6] = Rate 500 g/ha, scale 0 to 10, 0 is no effect, 10 is complete control
[7] = Pre-emergence, Rate 1000 g/ha, scale 0 to 10 (0 no effect, 10 complete control)
[8] = Rate 125 g/ha, under heading Pre-emergence, flood test species, visual evaluation after twelve to sixteen days
[9] = Rate 250 g/ha, Pre-emergence (flood test species), scale 0 to 10, 0 is no effect, 10 is complete control
[10] = Rate 500 g/ha, Pre-emergence section of Table B, 0 to 10 scale (0 no effect, 10 complete control)

COC(=O)C(c1ccccc1)n1c(=O)on(C(=O)N(c2ccc(F)cc2)C(C)C)c1=O (centres unmarked) [Compound 677]
Crabgrass plant response rating (crabgrass; [1]): 0
Crabgrass plant response rating (crabgrass; [2]): 6
Plant response rating, Crabgrass (crabgrass; [1]): 3
Plant response rating, Crabgrass (crabgrass; [3]): 6
Plant response rating, Crabgrass (crabgrass; [4]): 7
Crabgrass plant response rating (crabgrass; [5]): 0
Crabgrass plant response rating (crabgrass; [6]): 4
Plant response rating, Crabgrass (crabgrass; [2]): 9
Wheat plant response rating (wheat; [1]): 0
Wheat plant response rating (wheat; [2]): 0
Plant response rating, Wheat (wheat; [1]): 0
Plant response rating, Wheat (wheat; [4]): 0
Wheat plant response rating (wheat; [5]): 0
Wheat plant response rating (wheat; [6]): 0
Plant response rating, Wheat (wheat; [2]): 0
Blackgrass plant response rating (blackgrass; [1]): 0
Blackgrass plant response rating (blackgrass; [2]): 4
Plant response rating, Blackgrass (blackgrass; [1]): 0
Plant response rating, Blackgrass (blackgrass; [3]): 0
Plant response rating, Blackgrass (blackgrass; [4]): 0
Blackgrass plant response rating (blackgrass; [5]): 0
Blackgrass plant response rating (blackgrass; [6]): 1
Plant response rating, Blackgrass (blackgrass; [2]): 4
S. Flatsedge plant response rating (smallflower flatsedge; [7]): 0
S. Flatsedge plant response rating (0 to 10 scale, 0 is no effect, 10 is complete control) (smallflower flatsedge; [8]): 0
S. Flatsedge plant response rating (smallflower flatsedge; [9]): 0
S. Flatsedge plant response rating (smallflower flatsedge; [10]): 0
Soybean plant response rating (soybean; [1]): 0
Soybean plant response rating (soybean; [2]): 7
Plant response rating, Soybean (soybean; [1]): 0
Plant response rating, Soybean (soybean; [4]): 0
Soybean plant response rating (soybean; [5]): 1
Soybean plant response rating (soybean; [6]): 2
Plant response rating, Soybean (soybean; [2]): 0
Rice plant response rating (rice; [7]): 0
Rice plant response rating (0 to 10 scale, 0 is no effect, 10 is complete control) (rice; [8]): 0
Rice plant response rating (rice; [9]): 0
Rice plant response rating (rice; [10]): 0
Rape plant response rating (rape; [1]): 0
Rape plant response rating (rape; [2]): 0
Plant response rating, Rape (rape; [1]): 0
Plant response rating, Rape (rape; [4]): 0
Rape plant response rating (rape; [5]): 0
Rape plant response rating (rape; [6]): 0
Plant response rating, Rape (rape; [2]): 3
Morningglory plant response rating (morningglory; [1]): 2
Plant response rating, Morningglory (morningglory; [1]): 0
Plant response rating, Morningglory (morningglory; [4]): 0
Morningglory plant response rating (morningglory; [5]): 4
Morningglory plant response rating (morningglory; [6]): 7
Plant response rating, Morningglory (morningglory; [2]): 0
Giant foxtail plant response rating (giant foxtail; [1]): 0
Giant foxtail plant response rating (giant foxtail; [2]): 5
Plant response rating, Giant foxtail (giant foxtail; [1]): 5
Plant response rating, Giant foxtail (giant foxtail; [4]): 10
Giant foxtail plant response rating (giant foxtail; [5]): 2
Giant foxtail plant response rating (giant foxtail; [6]): 4
Plant response rating, Giant foxtail (giant foxtail; [2]): 10
Wild oats plant response rating (wild oat; [1]): 0
Wild oats plant response rating (wild oat; [2]): 0
Plant response rating, Wild oats (wild oat; [1]): 0
Plant response rating, Wild oats (wild oat; [4]): 0
Wild oats plant response rating (wild oat; [5]): 0
Wild oats plant response rating (wild oat; [6]): 0
Plant response rating, Wild oats (wild oat; [2]): 2
B. signalgrass plant response rating (surinam grass; [1]): 0
B. signalgrass plant response rating (surinam grass; [2]): 1
Plant response rating, B. signalgrass (surinam grass; [1]): 0
Plant response rating, B. signalgrass (surinam grass; [3]): 3
Plant response rating, B. signalgrass (surinam grass; [4]): 5
B. signalgrass plant response rating (surinam grass; [5]): 0
B. signalgrass plant response rating (surinam grass; [6]): 0
Plant response rating, B. signalgrass (surinam grass; [2]): 9
Corn plant response rating (corn; [1]): 0
Corn plant response rating (corn; [2]): 0
Plant response rating, Corn (corn; [1]): 0
Plant response rating, Corn (corn; [3]): 0
Plant response rating, Corn (corn; [4]): 0
Corn plant response rating (corn; [5]): 0
Corn plant response rating (corn; [6]): 0
Plant response rating, Corn (corn; [2]): 0
Bedstraw plant response rating (bedstraw): 0
Sugarbeets plant response rating (sugar beet; [1]): 0
Sugarbeets plant response rating (sugar beet; [2]): 1
Plant response rating, Sugarbeets (sugar beet; [1]): 0
Plant response rating, Sugarbeets (sugar beet; [4]): 0
Sugarbeets plant response rating (sugar beet; [5]): 0
Sugarbeets plant response rating (sugar beet; [6]): 1
Plant response rating, Sugarbeets (sugar beet; [2]): 7
Nutsedge plant response rating (purple nutsedge; [1]): 0
Nutsedge plant response rating (purple nutsedge; [2]): 0
Plant response rating, Nutsedge (purple nutsedge; [1]): 0
Plant response rating, Nutsedge (purple nutsedge; [4]): 0
Nutsedge plant response rating (purple nutsedge; [5]): 0
Nutsedge plant response rating (purple nutsedge; [6]): 0
Plant response rating, Nutsedge (purple nutsedge; [2]): 0
Redroot pigweed plant response rating (pigweed; [1]): 2
Redroot pigweed plant response rating (pigweed; [2]): 4
Plant response rating, Redroot pigweed (pigweed; [1]): 4
Redroot pigweed plant response rating (pigweed; [5]): 3
Redroot pigweed plant response rating (pigweed; [6]): 3
Plant response rating, Redroot pigweed (pigweed; [2]): 8
Cocklebur plant response rating (cocklebur; [1]): 0
Cocklebur plant response rating (cocklebur; [2]): 1
Plant response rating, Cocklebur (cocklebur; [1]): 0
Plant response rating, Cocklebur (cocklebur; [3]): 0
Plant response rating, Cocklebur (cocklebur; [4]): 0
Cocklebur plant response rating (cocklebur; [5]): 0
Cocklebur plant response rating (cocklebur; [6]): 1
Plant response rating, Cocklebur (cocklebur; [2]): 0
Velvetleaf plant response rating (velvetleaf; [1]): 0
Velvetleaf plant response rating (velvetleaf; [2]): 3
Plant response rating, Velvetleaf (velvetleaf; [1]): 0
Plant response rating, Velvetleaf (velvetleaf; [4]): 0
Velvetleaf plant response rating (velvetleaf; [5]): 0
Velvetleaf plant response rating (velvetleaf; [6]): 3
Plant response rating, Velvetleaf (velvetleaf; [2]): 0
Ducksalad plant response rating (duck salad; [7]): 0
Ducksalad plant response rating (0 to 10 scale, 0 is no effect, 10 is complete control) (duck salad; [8]): 0
Ducksalad plant response rating (duck salad; [9]): 0
Ducksalad plant response rating (duck salad; [10]): 0
Barnyardgrass plant response rating (bamyardgrass; [7]): 0
Barnyardgrass plant response rating (0 to 10 scale, 0 is no effect, 10 is complete control) (bamyardgrass; [8]): 0
Barnyardgrass plant response rating (bamyardgrass; [9]): 0
Barnyardgrass plant response rating (bamyardgrass; [10]): 0

Reference: patent US6737383B1, “Herbicidal oxadiazolidines” (priority 1999, dated 2004)
